The text below walks through data of patent publication US8697441B2, “Method of inducing high activity of human adipose stem cell and medium therefor” (Seoul National University Hospital, priority 2009, dated 2014).

Data set [1] deals with human adipose stem cells. Kind of data set: Culturing of adipose stem cells in medium containing glycerol, cell counting. The class given is cell-based. The protocol:
Through experiments to elucidate the mechanism of improved growth ability observed in coculturing with adipocytes, The present inventors have confirmed that the fat metabolite glycerol is one of the important factors and found out that the growth ability and differentiation efficiency can be enhanced only with glycerol, without adipocytes. […] […] […] In addition, the degree of DNA polymerization was evaluated by BrdU assay in order to further investigate the ability of cell growth and differentiation.

Data set [2] relates to human adipose stem cells. As to the kind of experiment: Growth ability (BrdU assay). The class given is cell-based. The settings on record: FIG. 6b. The protocol: 1. Growth Ability (BrdU Assay) DNA polymerization occurring during cell growth was quantitated using BrdU. The same number of isolated human adipose stem cells (2×10^4 cells each) were cultured in a culture dish in α-MEM containing 10-100 μM glycerol and 10% FBS. […] In addition, the degree of DNA polymerization was evaluated by BrdU assay in order to further investigate the ability of cell growth and differentiation.

For the next data set, the system named is AKT. As to the kind of experiment: Analysis of activation mechanism: degree of AKT activation (pAKT/tAKT). The class given is cell-based, human. The settings on record: FIG. 7; decreased again by inhibition of aquaporins (AQ1 and AQ9).
The subject of data set [3] is human adipose stem cells cocultured with HUVECs. As to the kind of experiment: Matrigel tube formation assay after coculturing with HUVECs. Type of data set: cell-based. To be noted: FIG. 8; adipose stem cells exposed to glycerol vs not exposed. The method, then: 3. Tube Formation Assay Vascular tube formation ability was observed after coculturing the cells with human umbilical vein endothelial cells (HUVECs). Differentiation potency was evaluated by Matrigel tube formation assay, which is widely used to compare formation of capillary-like structures in vitro, after coculturing human adipose stem cells with HUVECs.

Protocol for AKT: Then, protein was extracted from the cells of each group and the degree of AKT activation, which is a measure of cell activity, was measured. […] The degree of AKT activation is evaluated from the ratio of phosphorylated AKT (pAKT) to total AKT (tAKT). The total AKT was normalized with β-actin which is normally expressed in cells.

For `OCC(O)CO` [glycerol], the “most effective glycerol concentration” value in the data set with human adipose stem cells [1] (FIG. 6, cell number, BrdU, morphology) came to 10 µM. Besides, in the data set with human adipose stem cells [1] (FIG. 6a, adipose stem cells cultured in medium containing glycerol, by glycerol concentration), the cell number entry is given as “increased in a glycerol concentration-dependent manner”. Further, the “cell number versus control groups” value with human adipose stem cells [1] (G10 (10 μM glycerol), α-MEM with 10% FBS, 2×10^4 cells seeded, FIG. 6a) is “showed a cell number larger than those of the negative control group “control” and the positive control group “bFGF (4 ng/mL)””. Moreover, the cytotoxicity entry in the data set on human adipose stem cells [1] (glycerol concentration 500 μM) is given as “cytotoxicity was observed”. Further, in the data set on human adipose stem cells [2] (with glycerol concentration), the “BrdU incorporation owing to cell division” value is reported as “increased BrdU incorporation”. In addition, the “DNA synthesis (BrdU assay)” value in the data set on human adipose stem cells [2] (group G1) and in the data set on human adipose stem cells [2] (group G10 (10 μM glycerol)) was “showed active DNA synthesis” in each case. The AKT activity entry in the data set with AKT is recorded as “increased AKT activity”. Further, in data set [3], the “vascular tube formation ability” value was “increased vascular structures and densities”.
